≈ marks a conversion by molar mass, not a printed value.
What was measured:
Format in all cases: cell-based
[1] = tested on: some of these organisms; assay: MIC against various organisms (unspecified subset); conditions: against some of these organisms (those of the table)
Experimental: (§1) The MIC (μg/ml) of compounds 1 and 2 against various organisms was determined.

[2] = tested on: S. aureus Oxford; assay: MIC against S. aureus Oxford; conditions: Staphylococcus aureus
Experimental: as §1

[3] = tested on: S. aureus WCUH29; assay: MIC against S. aureus WCUH29; conditions: Staphylococcus aureus
Experimental: as §1

[4] = tested on: S. aureus Carter 37; assay: MIC against S. aureus Carter 37; conditions: Staphylococcus aureus, CARTER37
Experimental: as §1

[5] = tested on: E. faecalis I; assay: MIC against E. faecalis I; conditions: Enterococcus faecalis
Experimental: as §1

[6] = tested on: M. catarrhalis Ravasio; assay: MIC against M. catarrhalis Ravasio; conditions: Moraxella catarrhalis
Experimental: as §1

[7] = tested on: S. pneumoniae R6; assay: MIC against S. pneumoniae R6; conditions: Streptococcus pneumoniae
Experimental: as §1

Row | Structure (SMILES) | MIC [1] [µg/mL] | MIC [2] [µg/mL] | MIC [3] [µg/mL] | MIC [4] [µg/mL] | MIC [5] [µg/mL] | MIC [6] [µg/mL] | MIC [7] [µg/mL]
1 | C=C[C@H]1CN(CCCCCCC)CC[C@H]1CC(O)Cc1ccnc2ccc(OC)nc12 (mixture of isomers) [Example 5, [3R,4S]-1-Heptyl-3-ethenyl-4-[2-(R,S)-hydroxy-3-(6-methoxy-1,5-naphthyridin-4-yl)propyl]piperidine] | ≤ 1 | – | – | – | – | – | –
2 | C=C[C@H]1CN(CCCCCCC)CC[C@H]1CCN(C)c1ncnc2ccc(OC)cc12 [Example 1, [3R, 4S]-1-Heptyl-4-[N-methyl-N-(6-methoxy-quinazolin-4-yl)-2-aminoethyl]-3-ethenylpiperidine] | – | 0.5 (≈ 1.18 µM) | 0.5 (≈ 1.18 µM) | 0.5 (≈ 1.18 µM) | 4 (≈ 9.42 µM) | 0.5 (≈ 1.18 µM) | 0.5 (≈ 1.18 µM)
3 | C=C[C@H]1CN(CCCCCCC)CC[C@H]1CCOc1ncnc2ccc(OC)cc12 [Example 2, [3R, 4S]-1-Heptyl-4-[2-(6-methoxyquinazolin4-oxy)ethyl]-3-ethenylpiperidine] | – | 4 (≈ 9.72 µM) | 4 (≈ 9.72 µM) | 4 (≈ 9.72 µM) | 8 (≈ 19.4 µM) | 4 (≈ 9.72 µM) | 8 (≈ 19.4 µM)
4 | CCCCCCCN1CCC(C(=O)Nc2ccnc3ccc(OC)nc23)CC1 [Example 3, 1-Heptyl-4-(6-methoxy-1,5-naphthyridin-4-yl)aminocarbonyl Piperidine] | ≤ 1 | – | – | – | – | – | –
5 | CCCCCCCN1CC[C@@H](CC(=O)Nc2ccnc3ccc(OC)nc23)[C@@H](CC(N)=O)C1.O=C(O)C(=O)O [Example 6, [3R,4S]-1-Heptyl-4-N-(6-methoxy-1,5-naphthyridin-4-yl)-3,4-piperidinediacetamide Oxalate] | ≤ 1 | – | – | – | – | – | –
